Calls of active or inactive are those of the source. The calls are words filed in the database; no cut-off is given here.
What was measured:
[1] = target: Presenilin-1 (Homo sapiens) (UniProt P49768); test: Binding affinity to presenilin-1 in UV irradiated human HeLa cells assessed as enzyme photolabeling at 10 uM by SDS-PAGE based photocross linking study; type: cell-based
Gamma-secretase = test: Inhibition of human gamma secretase assessed as effect on C100Flag substrate cleavage; type: protein-complex assay
[2] = target: Presenilin-1 (Homo sapiens) (UniProt P49768); test: Binding affinity to presenilin-1 in UV irradiated human HeLa cells assessed as enzyme photolabeling at 10 uM in presence of 2 uM L-685,458 by SDS-PAGE based photocross linking study; type: cell-based

| Activity [1] | IC50 (Gamma-secretase) [nM] | Activity [2] | Structure (SMILES) |
| --- | --- | --- | --- |
| Active | 0.6 | inactive | CC(C)C[C@H](NC(=O)[C@H](Cc1ccccc1)C[C@@H](O)[C@H](Cc1ccc(C(=O)c2ccccc2)cc1)NC(=O)OC(C)(C)C)C(=O)N[C@@H](Cc1ccccc1)C(=O)NCCCCCNC(=O)CCCCC1SC[C@H]2NC(=O)N[C@@H]12 (some centres undefined) |
|  | 0.7 |  | COC(=O)[C@H](Cc1ccccc1)NC(=O)[C@H](CC(C)C)NC(=O)[C@H](Cc1ccccc1)C[C@@H](O)[C@H](Cc1ccc(C(=O)c2ccccc2)cc1)NC(=O)OC(C)(C)C |

From ChEMBL document CHEMBL1141031, “Stereo-controlled synthesis of novel photoreactive gamma-secretase inhibitors” (Bioorg Med Chem Lett, 2009)
